Test results from PubChem BioAssay (NCI).
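The compound was tested at five concentrations on cells cultured in 96-well plates, with a 48-hour exposure period. Abbreviation: GI50, concentration required for 50% inhibition of growth. TGI: concentration producing complete growth inhibition.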

Assays:
Assay in all cases: NCI tumour cell line growth inhibition, 48 h; in the data active means GI50 below about 0.43 µM; inactive means the rest
NCI-H23 lung = tested on: NCI-H23 lung
NCI-H460 lung = tested on: NCI-H460 lung
NCI-H522 lung = tested on: NCI-H522 lung
NCI/ADR-RES ovarian = tested on: NCI/ADR-RES ovarian
OVCAR-3 ovarian = tested on: OVCAR-3 ovarian
OVCAR-4 ovarian = tested on: OVCAR-4 ovarian
OVCAR-5 ovarian = tested on: OVCAR-5 ovarian
OVCAR-8 ovarian = tested on: OVCAR-8 ovarian
PC-3 prostate = tested on: PC-3 prostate
RPMI-8226 leukemia = tested on: RPMI-8226 leukemia
RXF 393 renal = tested on: RXF 393 renal
SF-268 CNS = tested on: SF-268 CNS
SF-295 CNS = tested on: SF-295 CNS
SF-539 CNS = tested on: SF-539 CNS
SK-MEL-2 melanoma = tested on: SK-MEL-2 melanoma
SK-MEL-28 melanoma = tested on: SK-MEL-28 melanoma
SK-MEL-5 melanoma = tested on: SK-MEL-5 melanoma
SK-OV-3 ovarian = tested on: SK-OV-3 ovarian
SN12C renal = tested on: SN12C renal
SNB-19 CNS = tested on: SNB-19 CNS
SNB-75 CNS = tested on: SNB-75 CNS
SR leukemia = tested on: SR leukemia
SW-620 colon = tested on: SW-620 colon
T-47D breast = tested on: T-47D breast
TK-10 renal = tested on: TK-10 renal
U251 CNS = tested on: U251 CNS
UACC-257 melanoma = tested on: UACC-257 melanoma
UACC-62 melanoma = tested on: UACC-62 melanoma
UO-31 renal = tested on: UO-31 renal

COc1sc(/C=N/NC(=O)c2[nH]c3ccc(Br)cc3c2-c2ccccc2)cc1Br
25.3 µM: TGI (SNB-75 CNS)
> 100 µM: TGI (NCI-H23 lung) | TGI (OVCAR-4 ovarian) | TGI (OVCAR-8 ovarian) | TGI (PC-3 prostate) | TGI (RPMI-8226 leukemia) | TGI (RXF 393 renal) | TGI (SF-268 CNS) | TGI (SF-295 CNS) | TGI (SK-MEL-2 melanoma) | TGI (SK-MEL-28 melanoma) | TGI (SK-OV-3 ovarian) | TGI (SN12C renal) | TGI (SNB-19 CNS) | TGI (SR leukemia) | TGI (SW-620 colon) | TGI (T-47D breast) | TGI (TK-10 renal) | TGI (U251 CNS) | TGI (UACC-257 melanoma) | TGI (UACC-62 melanoma) | TGI (UO-31 renal)
active: GI50 (NCI-H522 lung) 0.259 µM | GI50 (SK-OV-3 ovarian) 0.365 µM | GI50 (SNB-75 CNS) 0.359 µM
6.45 µM: TGI (NCI/ADR-RES ovarian)
inactive: GI50 (NCI-H23 lung) 3.67 µM | GI50 (NCI-H460 lung) 3.03 µM | GI50 (NCI/ADR-RES ovarian) 2.12 µM | GI50 (OVCAR-3 ovarian) 1.2 µM | GI50 (OVCAR-4 ovarian) 9.78 µM | GI50 (OVCAR-5 ovarian) 3.39 µM | GI50 (OVCAR-8 ovarian) 0.499 µM | GI50 (PC-3 prostate) 3.14 µM | GI50 (RPMI-8226 leukemia) 1.92 µM | GI50 (RXF 393 renal) 4.27 µM | GI50 (SF-268 CNS) 2.82 µM | GI50 (SF-295 CNS) 2.84 µM | GI50 (SF-539 CNS) 1.93 µM | GI50 (SK-MEL-2 melanoma) 5.12 µM | GI50 (SK-MEL-28 melanoma) 4.89 µM | GI50 (SK-MEL-5 melanoma) 2.12 µM | GI50 (SN12C renal) 2.91 µM | GI50 (SNB-19 CNS) 3.98 µM | GI50 (SR leukemia) 1.1 µM | GI50 (SW-620 colon) 3.28 µM | GI50 (T-47D breast) 45.2 µM | GI50 (TK-10 renal) 88.9 µM | GI50 (U251 CNS) 3.65 µM | GI50 (UACC-257 melanoma) > 100 µM | GI50 (UACC-62 melanoma) 0.988 µM | GI50 (UO-31 renal) 4.21 µM
12.4 µM: TGI (NCI-H460 lung)
0.686 µM: TGI (NCI-H522 lung)
5.51 µM: TGI (SF-539 CNS)
12 µM: TGI (OVCAR-3 ovarian)
69.9 µM: TGI (OVCAR-5 ovarian)
4.97 µM: TGI (SK-MEL-5 melanoma)
